Data from patent US9981976B2, “Piperidine substituted pyrazolo[1,5-A]pyrimidine derivatives with inhibitory activity on the replication of the respiratory syncytial virus (RSV)” (priority 2014, dated 2018).

Legend:
HeLa cells = assay: Cytotoxicity in HeLa cells, ATP content (ATPlite kit); settings: three days incubation, CC50 = 50% concentration for cytotoxicity
rgRSV224 virus = assay: microbe, parasite or virus in culture; format: cell-based, respiratory syncytial virus (RSV); settings: for EC50: human respiratory syncytial virus, HeLa, 72 h, read-out: RSV HELA pEC50, rgRSV224 virus (MOI=1), HeLa cells, GFP expression three days post-virus exposure (converted)

Row | SMILES | SI TOX HELA (HeLa cells) | EC50 (rgRSV224 virus) [µM] | RSV HELA pEC50 (rgRSV224 virus; rgRSV224 virus (MOI=1), HeLa cells, GFP expression three days post-virus exposure)
1 | Cc1cccc2nc(C(=N)NO)nc(N3CCCCC3c3cc4nc(N5CCC5)cc(N5CCOCC5)n4n3)c12 (stereo not shown) [P30, 4-(2-(5-(azetidin-1-yl)-7-morpholinopyrazolo[1,5-a]pyrimidin-2-yl)-piperidin-1-yl)-N-hydroxy-5-methylquinazoline-2-carboximidamide] | 4.6 | 0.631 | –
2 | CCOc1nc(N2CCCCC2c2cc3nc(N4CCC4)cc(N4CCOCC4)n3n2)c2c(C)cccc2n1 (stereo not shown) [P31, 4-(5-(azetidin-1-yl)-2-(1-(2-ethoxy-5-methylquinazolin-4-yl)piperidin-2-yl)pyrazolo[1,5-a]pyrimidin-7-yl)morpholine] | 4.8 | 0.158 | –
3 | CS(=O)(=O)Nc1nc(N2CCCC[C@H]2c2cc3nc(N4CCC4)cc(N4CCOCC4)n3n2)c2cc(Cl)ccc2n1 [P33, (S)—N-(4-(2-(5-(azetidin-1-yl)-7-morpholinopyrazolo[1,5-a]-pyrimidin-2-yl)piperidin-1-yl)-6-chloroquinazolin-2-yl)methanesulfonamide] | 4.2 | – | 7.88
4 | CS(=O)(=O)Nc1nc(N2CCCC[C@@H]2c2cc3nc(N4CCC4)cc(N4CCOCC4)n3n2)c2cc(Cl)ccc2n1 [P34, (R)—N-(4-(2-(5-(azetidin-1-yl)-7-morpholinopyrazolo[1,5-a]-pyrimidin-2-yl)piperidin-1-yl)-6-chloroquinazolin-2-yl)methanesulfonamide] | 4.3 | 0.631 | –
5 | Clc1cccc2ncnc(N3CCCCC3c3cc4nc(N5CCC5)cc(N5CCOCC5)n4n3)c12 (stereo not shown) [P35, 4-(5-(azetidin-1-yl)-2-(1-(5-chloroquinazolin-4-yl)piperidin-2-yl)-pyrazolo[1,5-a]pyrimidin-7-yl)morpholine] | 4.4 | 0.0631 | –
6 | CN(C)S(=O)(=O)NC(=O)c1nc(N2CCCCC2c2cc3nc(N4CCC4)cc(N4CCOCC4)n3n2)c2ccccc2n1 (stereo not shown) [P36, 4-(2-(5-(azetidin-1-yl)-7-morpholinopyrazolo[1,5-a]pyrimidin-2-yl)-piperidin-1-yl)-N—(N,N-dimethylsulfamoyl)quinazoline-2-carboxamide] | <4 | 0.501 | –
7 | Cc1nc(N2CCCCC2c2cc3nc(N4CC(O)C4)c(C)cn3n2)c2c(C)cccc2n1 (stereo not shown) [P37, 1-(2-(1-(2,5-dimethylquinazolin-4-yl)piperidin-2-yl)-6-methyl-pyrazolo[1,5-a]pyrimidin-5-yl)azetidin-3-ol] | 4.3 | 0.316 | –
8 | Cc1cn2nc(C3CCCCN3c3nc(Cl)nc4cccc(C)c34)cc2nc1N1CC(O)C1 (stereo not shown) [P40, 1-(2-(1-(2-chloro-5-methylquinazolin-4-yl)piperidin-2-yl)-6-methylpyrazolo[1,5-a]pyrimidin-5-yl)azetidin-3-ol] | 4.7 | 0.158 | –
9 | Cc1cn2nc(C3CCCCN3c3nc(NS(C)(=O)=O)nc4cccc(C)c34)cc2nc1N1CC(O)C1 (stereo not shown) [P41, N-(4-(2-(5-(3-hydroxyazetidin-1-yl)-6-methylpyrazolo[1,5-a]-pyrimidin-2-yl)piperidin-1-yl)-5-methylquinazolin-2-yl)methanesulfonamide] | <4 | 0.0794 | –
10 | Cc1ccc2nc(C)nc(N3CCCCC3c3cc4nc(N5CC(O)C5)c(C)cn4n3)c2c1 (stereo not shown) [P42, 1-(2-(1-(2,6-dimethylquinazolin-4-yl)piperidin-2-yl)-6-methyl-pyrazolo[1,5-a]pyrimidin-5-yl)azetidin-3-ol] | <4.6 | 2.51 | –
11 | Cc1ccc2nc(C)nc(N3CCCC[C@H]3c3cc4nc(N5CC(O)C5)c(C)cn4n3)c2c1 [P43, (S)-1-(2-(1-(2,6-dimethylquinazolin-4-yl)piperidin-2-yl)-6-methyl-pyrazolo[1,5-a]pyrimidin-5-yl)azetidin-3-ol] | 4.2 | 15.8 | –
12 | Cc1ccc2nc(C)nc(N3CCCC[C@@H]3c3cc4nc(N5CC(O)C5)c(C)cn4n3)c2c1 [P44, (R)-1-(2-(1-(2,6-dimethyl-quinazolin-4-yl)piperidin-2-yl)-6-methylpyrazolo[1,5-a]pyrimidin-5-yl)azetidin-3-ol] | 4.2 | 0.794 | –
13 | Cc1cccc2nc(O)nc(N3CCCCC3c3cc4nc(N5CCC5)cc(N5CCOCC5)n4n3)c12 (stereo not shown) [P45, 4-(2-(5-(azetidin-1-yl)-7-morpholinopyrazolo[1,5-a]pyrimidin-2-yl)-piperidin-1-yl)-5-methylquinazolin-2-ol] | 4.2 | 0.2 | –
14 | Cc1cccc2nc(C(N)=O)nc(N3CCCCC3c3cc4nc(N5CCC5)cc(N5CCOCC5)n4n3)c12 (stereo not shown) [P46, 4-(2-(5-(azetidin-1-yl)-7-morpholinopyrazolo[1,5-a]pyrimidin-2-yl)-piperidin-1-yl)-5-methylquinazoline-2-carboxamide] | 4.3 | 0.316 | –
15 | Cc1c(C2CC2)nc2cc(C3CCCCN3c3ncnc4cccc(C)c34)nn2c1N1CCOCC1 (stereo not shown) [P47, 4-(5-cyclopropyl-6-methyl-2-(1-(5-methylquinazolin-4-yl)piperidin-2-yl)pyrazolo[1,5-a]pyrimidin-7-yl)morpholine] | 4.6 | 0.501 | –
16 | Cc1ccc2ncnc(N3CCCC[C@@H]3c3cc4nc(N5CC[C@H](N)C5)ccn4n3)c2c1 [P50, (S)-1-(2-((R)-1-(6-methylquinazolin-4-yl)piperidin-2-yl)pyrazolo-[1,5-a]pyrimidin-5-yl)pyrrolidin-3-amine] | 4.3 | 0.631 | –
17 | Cc1cccc2ncnc(N3CCCCC3c3cc4nc(N5CCC5)cc(N5CCN(C(=O)OC(C)(C)C)CC5)n4n3)c12 (stereo not shown) [P52, tert-butyl4-(5-(azetidin-1-yl)-2-(1-(5-methylquinazolin-4-yl)piperidin-2-yl)pyrazolo[1,5-a]pyrimidin-7-yl)piperazine-1-carboxylate] | 4.7 | 0.0794 | –
18 | Cc1cccc2ncnc(N3CCCCC3c3cc4nc(N5CCC5)cc(N5CCNCC5)n4n3)c12 (stereo not shown) [P53, 4-(2-(5-(azetidin-1-yl)-7-(piperazin-1-yl)pyrazolo[1,5-a]pyrimidin-2-yl)piperidin-1-yl)-5-methylquinazoline] | 4.6 | 0.0501 | –
19 | Cc1cccc2ncnc(N3CCCCC3c3cc4nc(N5CCC5)cc(N5CCN(C(=O)NC(C)C)CC5)n4n3)c12 (stereo not shown) [P54, 4-(5-(azetidin-1-yl)-2-(1-(5-methylquinazolin-4-yl)piperidin-2-yl)-pyrazolo[1,5-a]pyrimidin-7-yl)-N-isopropylpiperazine-1-carboxamide] | 4.5 | 0.0251 | –
20 | Cc1cccc2ncnc(N3CCCCC3c3cc4nc(N5CCC5)cc(N5CCN(S(C)(=O)=O)CC5)n4n3)c12 (stereo not shown) [P55, 4-(2-(5-(azetidin-1-yl)-7-(4-(methylsulfonyl)piperazin-1-yl)pyrazolo-[1,5-a]pyrimidin-2-yl)piperidin-1-yl)-5-methylquinazoline] | 4.3 | 0.0158 | –
